Data on 42 compounds can be found in the RepoRT retention time repository (doi:10.1039/c6ra10883k).

This data set in a line: Phenomenex Kinetex XB-C18, 100 × 2.1 mm, 1.7 µm, 35 °C, 0.3 mL/min, estimated dead time 0.73 min; A: water + 0.1% formic acid; B: acetonitrile + 0.1% formic acid; gradient (min/%B) 0/5 1/5 2/10 9/33 15/46 16/70 21/90 22/90. Particulars: stereoisomer not certain.
Consider `O=c1cc(-c2ccc(O)c(O)c2)oc2cc(OC3OC(CO)C(O)C(O)C3O)cc(O)c12` (configuration not stated), for which the LC retention time was 6.28 min. As to `O=C(C=Cc1ccc(O)cc1)C1=C(O)C2=C(OC3(C2)OCC(O)C(O)C3O)C(O)(C2OC(CO)C(O)C(O)C2O)C1=O` (configuration not stated), the LC retention time was 6.76 min.

Consider `CC(C)=CCCC(C)(OC1OC(COC2OC(CO)C(O)C(O)C2O)C(O)C(O)C1O)C1CCC2(C)C1C(O)CC1C3(C)CCC(O)C(C)(C)C3C(OC3OC(CO)C(O)C(O)C3O)CC12C` (configuration not stated), for which the LC retention time is 7.09 min.

For the compound `CCCC=C1OC(=O)C2=C1CCC1C3C=C4C(=O)OC(=CCCC)C4(CC3)C21` (configuration not stated), the LC retention time is 18.2 min. As to `CC(C)=CCCC(C)(OC1OC(COC2OC(COC3OCC(O)C(O)C3O)C(O)C(O)C2O)C(O)C(O)C1O)C1CCC2(C)C1C(O)CC1C3(C)CCC(OC4OC(CO)C(O)C(O)C4OC4OC(CO)C(O)C(O)C4O)C(C)(C)C3CCC12C` (configuration not stated), the LC retention time is 10.2 min. The figure for `COc1cc(C=CCO)cc(OC)c1OC1OC(CO)C(O)C(O)C1O` (configuration not stated) is 3.9 min; for `O=c1c(O)c(-c2ccc(O)c(O)c2)oc2cc(O)cc(O)c12` it is 8.93 min. The figure for `CC(C)=CCCC(C)(OC1OC(CO)C(O)C(O)C1O)C1CCC2(C)C1C(O)CC1C3(C)CCC(O)C(C)(C)C3C(OC3OC(CO)C(O)C(O)C3OC3OCC(O)C(O)C3O)CC12C` (configuration not stated) is 7.68 min; for `CC(C)=CCCC(C)(OC1OC(CO)C(O)C(O)C1O)C1CCC2(C)C1C(O)CC1C3(C)CCC(O)C(C)(C)C3C(OC3OC(CO)C(O)C(O)C3O)CC12C` (configuration not stated) it is 8.07 min. As for `CC(C)=CCCC(C)(O)C1CCC2(C)C1C(O)CC1C3(C)CCC(O)C(C)(C)C3C(OC3OC(CO)C(O)C(O)C3OC3OC(CO)C(O)C(O)C3O)CC12C` (configuration not stated), the LC retention time was 10.1 min.

Consider `CC(C)=CCCC(C)(OC1OC(CO)C(O)C(O)C1O)C1CCC2(C)C1C(O)CC1C3(C)CCC(OC4OC(CO)C(O)C(O)C4OC4OC(CO)C(O)C(O)C4O)C(C)(C)C3C(O)CC12C` (configuration not stated), for which the LC retention time was 9.5 min. Next, `CC(C)=CCCC(C)(O)C1CCC2(C)C1C(O)CC1C3(C)CCC(O)C(C)(C)C3C(OC3OC(CO)C(O)C(O)C3OC3OC(C)C(O)C(O)C3O)CC12C` (configuration not stated): 10.9 min; `C=C(CCC=C(C)C)C1CCC2(C)C1C(O)CC1C3(C)CCC(O)C(C)(C)C3C(OC3OC(CO)C(O)C(O)C3OC3OCC(O)C(O)C3O)CC12C` (configuration not stated): 14 min. Turning to `CCCC=C1OC(=O)C2=C1CCC=C2`, the LC retention time was 16.4 min. With `CC(C)=CCCC(C)(OC1OC(CO)C(O)C(O)C1O)C1CC(C)C2(C)C3CC(OC4OC(CO)C(O)C(O)C4OC4OC(CO)C(O)C(O)C4O)C4C(C)(C)C(O)CCC4(C)C3CC(O)C12` (configuration not stated), the LC retention time was 7.5 min. The figure for `O=c1c(O)c(-c2ccc(O)cc2)oc2cc(O)cc(O)c12` is 10.3 min. The figure for `O=c1cc(-c2ccc(O)c(O)c2)oc2cc(O)cc(O)c12` is 8.91 min. In the case of `CC(C)=CCCC(C)(OC1OC(COC2OC(CO)C(O)C2O)C(O)C(O)C1O)C1CCC2(C)C1C(O)CC1C3(C)CCC(OC4OC(CO)C(O)C(O)C4OC4OC(CO)C(O)C(O)C4O)C(C)(C)C3CCC12C` (configuration not stated), the LC retention time was 11.2 min.

In the case of `CC(C)=CCCC(C)(OC1OC(CO)C(O)C(O)C1O)C1CCC2(C)C1C(O)CC1C3(C)CCC(OC4OC(CO)C(O)C(O)C4OC4OC(CO)C(O)C(O)C4O)C(C)(C)C3CCC12C` (configuration not stated), the LC retention time is 12.4 min. Take `CC(C)=CCCC(C)(OC1OC(COC2OC(CO)C(O)C(OC3OCC(O)C(O)C3O)C2O)C(O)C(O)C1O)C1CCC2(C)C1C(O)CC1C3(C)CCC(OC4OC(CO)C(O)C(O)C4OC4OC(CO)C(O)C(O)C4O)C(C)(C)C3CCC12C` (configuration not stated): the LC retention time was 10.5 min.

On to `CC(C)=CCCC(C)(OC1OC(CO)C(O)C(O)C1O)C1CCC2(C)C1C(O)CC1C3(C)CCC(O)C(C)(C)C3C(OC3OC(COC4OC(CO)C(O)C(O)C4O)C(O)C(O)C3O)CC12C` (configuration not stated), for which the LC retention time was 7.28 min. The figure for `O=C(C=Cc1ccc(O)c(O)c1)OC1CC(O)(C(=O)O)CC(OC(=O)C=Cc2ccc(O)c(O)c2)C1O` (configuration not stated) is 6.92 min; for `CC(C)=CCCC(C)(OC1OC(COC2OC(CO)C(O)C(O)C2O)C(O)C(O)C1O)C1CCC2(C)C1C(O)CC1C3(C)CCC(OC4OC(CO)C(O)C(O)C4OC4OC(CO)C(O)C(O)C4O)C(C)(C)C3CCC12C` (configuration not stated) it is 10.9 min; for `CC(C)=CCCC(C)(OC1OC(COC2OC(CO)C(O)C(OC3OCC(O)C(O)C3O)C2O)C(O)C(O)C1O)C1CCC2(C)C1C(O)CC1C3(C)CCC(OC4OC(CO)C(O)C(O)C4OC4OC(CO)C(O)C(O)C4OC4OCC(O)C(O)C4O)C(C)(C)C3CCC12C` (configuration not stated) it is 9.85 min. Next, `CC(C)=CCCC(C)(OC1OC(CO)C(O)C(O)C1O)C1CCC2(C)C1C(O)CC1C3(C)CCC(OC4OC(COC5OC(CO)C(O)C(O)C5O)C(O)C(O)C4O)C(C)(C)C3CCC12C` (configuration not stated): 13.2 min; `O=C(O)CC(C1=C(O)C(=C(O)C=Cc2ccc(O)cc2)C(=O)C(O)(C2OC(CO)C(O)C(O)C2O)C1=O)c1ccc(O)cc1` (configuration not stated): 7.95 min; `O=C(C=Cc1ccc(O)cc1)C1=C(O)C2=C(OC(C(O)C(O)C(O)CO)C2C2=C(O)C(=C(O)C=Cc3ccc(O)cc3)C(=O)C(O)(C3OC(CO)C(O)C(O)C3O)C2=O)C(O)(C2OC(CO)C(O)C(O)C2O)C1=O` (configuration not stated): 6.67 min. Regarding `CC1OC(OCC2OC(Oc3c(-c4ccc(O)cc4)oc4cc(O)cc(O)c4c3=O)C(O)C(O)C2O)C(O)C(O)C1O` (configuration not stated), the LC retention time was 6.6 min.

As to `CC(C)=CCCC(C)(OC1OC(CO)C(O)C(O)C1O)C1CCC2(C)C1C(O)CC1C3(C)CCC(OC4OC(CO)C(O)C(O)C4OC4OC(CO)C(O)C(O)C4O)C(C)(C)C3=CC(O)C12C` (configuration not stated), the LC retention time is 8.82 min. As for `CC(C)=CCCC(C)(OC1OC(CO)C(O)C(O)C1O)C1CCC2(C)C1C(O)CC1C3(C)CCC(OC4OC(CO)C(O)C(O)C4OC4OC(COC(=O)CC(=O)O)C(O)C(O)C4O)C(C)(C)C3CCC12C` (configuration not stated), the LC retention time is 12.7 min. Turning to `CC1OC(OCC2OC(Oc3c(-c4ccc(O)c(O)c4)oc4cc(O)cc(O)c4c3=O)C(O)C(O)C2O)C(O)C(O)C1O` (configuration not stated), the LC retention time was 5.99 min.

Consider `O=C1C(=C(O)C=Cc2ccc(O)cc2)C(O)=C(C2OC(CO)C(O)C(O)C2O)C(=O)C1(O)C1OC(CO)C(O)C(O)C1O` (configuration not stated), for which the LC retention time is 4.17 min.

Consider `O=c1c(OC2OC(CO)C(O)C(O)C2O)c(-c2ccc(O)cc2)oc2cc(O)cc(O)c12` (configuration not stated), for which the LC retention time was 6.86 min. Take `CC(C)=CCCC(C)(OC1OC(CO)C(O)C(O)C1O)C1CCC2(C)C1C(O)CC1C3(C)CCC(O)C(C)(C)C3CCC12C` (configuration not stated): the LC retention time was 17.3 min. Consider `CC(C)=CCCC(C)(O)C1CCC2(C)C1C(O)CC1C3(C)CCC(O)C(C)(C)C3C(O)CC12C` (configuration not stated), for which the LC retention time is 16.6 min. On to `CC(C)=CCCC(C)(OC1OC(CO)C(O)C(O)C1O)C1CCC2(C)C1C(O)CC1C3(C)CCC(OC4OC(CO)C(O)C(O)C4O)C(C)(C)C3CCC12C` (configuration not stated), for which the LC retention time is 15.4 min. Consider `CC(C)=CCCC(C)(OC1OC(COC2OCC(O)C(O)C2O)C(O)C(O)C1O)C1CCC2(C)C1C(O)CC1C3(C)CCC(OC4OC(CO)C(O)C(O)C4OC4OC(CO)C(O)C(O)C4O)C(C)(C)C3CCC12C` (configuration not stated), for which the LC retention time was 11.6 min.

As for `CC1(C)CCC2(C(=O)OC3OC(CO)C(O)C(O)C3O)CCC3(C)C(=CCC4C5(C)CCC(OC6OC(C(=O)O)C(O)C(O)C6OC6OC(CO)C(O)C(O)C6O)C(C)(C)C5CCC43C)C2C1` (configuration not stated), the LC retention time was 11.3 min. The figure for `O=c1c(O)c(-c2ccc(O)c(O)c2)oc2cc(OC3OC(CO)C(O)C(O)C3O)cc(O)c12` (configuration not stated) is 6.12 min; for `CC(C)=CCCC(C)(OC1OC(COC2OC(CO)C(O)C(O)C2O)C(O)C(O)C1O)C1CCC2(C)C1C(O)CC1C3(C)CCC(OC4OC(CO)C(O)C(O)C4OC4OC(COC(=O)CC(=O)O)C(O)C(O)C4O)C(C)(C)C3CCC12C` (configuration not stated) it is 11.1 min. Regarding `C=C(CCC=C(C)C)C1CCC2(C)C1C(O)CC1C3(C)CCC(O)C(C)(C)C3C(OC3OC(CO)C(O)C(O)C3O)CC12C` (configuration not stated), the LC retention time is 14.9 min. `COc1cc(C=CC(=O)O)ccc1O`: the LC retention time is 5.97 min.
